Experimental data taken from patent publication US8722649B2, “Alpha-chloro and alpha-bromo phosphonate analogs of lysophosphatidic acid and methods of making and using thereof” (University of Utah Research Foundation, priority 2007, dated 2014).
Read-outs that look alike come from different tables or passages of the source.

Key:
Format in all cases: cell-based
human LPA3 = target: T1, human LPA3 (Homo sapiens, UniProt Q9UBY5); test: Ca2+ mobilization assay, LPA3; conditions: for LPA3 ligand type: agonist/antagonist in words; for EC50: RH7777 cells stably expressing LPA3, agonist mode; for LPA3 (Emax): Emax = (maximal efficacy of compound/maximal efficacy of LPA 18:1) × 100
T1 construct: expressed in transfected cells
T1 sequence (Q9UBY5 1-353): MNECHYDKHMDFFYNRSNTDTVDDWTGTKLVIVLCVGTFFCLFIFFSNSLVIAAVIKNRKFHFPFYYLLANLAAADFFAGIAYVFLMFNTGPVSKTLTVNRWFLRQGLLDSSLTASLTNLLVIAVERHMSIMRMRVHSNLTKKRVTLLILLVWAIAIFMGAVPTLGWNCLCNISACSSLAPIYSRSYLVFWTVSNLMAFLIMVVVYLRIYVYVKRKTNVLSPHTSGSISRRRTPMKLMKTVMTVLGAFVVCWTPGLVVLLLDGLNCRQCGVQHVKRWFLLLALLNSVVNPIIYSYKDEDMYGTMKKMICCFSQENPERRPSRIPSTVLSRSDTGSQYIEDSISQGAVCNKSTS
Experimental: (§1) Receptor activation using Ca^2+ mobilization assay for diastereomers of 1 (also represented as 19b). The rat hepatoma (RH7777) cell lines individually expressing either LPA1, LPA2, LPA3 or LPA5 receptors and Chinese hamster ovary (CHO) cell line were analyzed to examine agonism and antagonism. […] CHO cells stably expressing either vector or LPA4 were kindly gifted from Dr. Shimizu (University of Tokyo, Tokyo, Japan).
(§2) Stable transformants of LPA1/2/3 receptors. RH7777 cells stably expressing each receptor were plated onto poly-L-lysine (PLL) (0.1 mg/mL)-coated black-wall clear-bottom 96-well plates (Corning Incorporated Life Sciences, Acton, Mass.) at a density of 5×10^4 cells/well and cultured overnight. The following day, the culture medium was replaced with modified Krebs buffer (120 mM NaCl, 5 mM KCl, 0.62 mM MgSO4, 1.8 mM CaCl2, 10 mM HEPES, 6 mM glucose, pH 7.4), and the cells were serum starved for 6 h. Subsequently, cells were loaded with Fura-2 AM (Invitrogen, Carlsbad, Calif.) for 35 min in modified Krebs buffer containing 2% (v/v) pluronic acid.
(§3) After incubating the cells with Fura-2 AM, the cells were rinsed with Krebs buffer and changes in the intracellular Ca^2+ concentration were monitored by determining the ratio of emitted light intensities at 520 nm in response to excitation at 340 and 380 nm using FLEXstation II (Molecular Devices, Sunnyvale, Calif.). Each well was monitored for 80-120 sec. For testing agonist activity of the compounds, the test compounds were added automatically after 15 sec of baseline measurement. […] Each test was performed in quadruplicate. EC50, IC50, and Ki values were calculated by fitting a sigmoid function to data points with the nonlinear curve-fitting feature of KaleidaGraph (Synergy Software, Essex Junction, Vt.).
(§4) Receptor activation using Ca^2+ mobilization assay. The assay for mobilization of intracellular Ca^2+ was performed as described. Briefly, rat hepatoma RH7777 cells stably expressing human LPA1, LPA2, or LPA3, and CHO cells stably expressing LPA4, were loaded with Fura-2 AM (Molecular Probes). Using a FLEXStation (Molecular Devices, Sunnyvale, Calif.), changes in intracellular Ca^2+ concentration were monitored. Ligand-induced changes in fluorescence were monitored for 80-120 seconds. Ca^2+ transients were quantified automatically by calculating the difference between maximum and baseline ratio values for each sample. […] Each test was performed in quadruplicate. EC50, IC50, and Ki values were calculated as described. The ligand properties of the compounds were evaluated using Ca^2+ mobilization assay for assessing the activation/inhibition of LPA1, LPA2, and LPA3 expressed in RH7777 cells and LPA4 expressed in CHO cells.

human LPA2 = target: T2, human LPA2 (Homo sapiens, UniProt Q9HBW0); test: Ca2+ mobilization assay, LPA2; conditions: for LPA2 ligand type: agonist/antagonist in words; for EC50: RH7777 cells stably expressing LPA2, agonist mode; for LPA2 (Emax): Emax = (maximal efficacy of compound/maximal efficacy of LPA 18:1) × 100
T2 construct: expressed in transfected cells
T2 sequence (Q9HBW0 whole entry): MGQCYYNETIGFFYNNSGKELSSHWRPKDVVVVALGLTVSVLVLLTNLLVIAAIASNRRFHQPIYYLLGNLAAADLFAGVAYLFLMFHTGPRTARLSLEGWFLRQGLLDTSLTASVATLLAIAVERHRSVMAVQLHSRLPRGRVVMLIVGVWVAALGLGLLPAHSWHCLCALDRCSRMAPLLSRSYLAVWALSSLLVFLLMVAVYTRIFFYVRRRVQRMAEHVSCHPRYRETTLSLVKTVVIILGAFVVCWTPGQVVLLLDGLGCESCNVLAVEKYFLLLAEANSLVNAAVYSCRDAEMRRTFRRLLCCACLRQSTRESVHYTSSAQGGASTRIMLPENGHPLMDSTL
Experimental: as §1, §2, §3, §4

human LPA1 = target: T3, human LPA1 (Homo sapiens, UniProt Q92633); test: Ca2+ mobilization assay, LPA1; conditions: for LPA1 ligand type: agonist/antagonist in words; for EC50: RH7777 cells stably expressing LPA1, agonist mode; for LPA1 (Emax): Emax = (maximal efficacy of compound/maximal efficacy of LPA 18:1) × 100
T3 construct: expressed in transfected cells
T3 sequence (Q92633 whole entry): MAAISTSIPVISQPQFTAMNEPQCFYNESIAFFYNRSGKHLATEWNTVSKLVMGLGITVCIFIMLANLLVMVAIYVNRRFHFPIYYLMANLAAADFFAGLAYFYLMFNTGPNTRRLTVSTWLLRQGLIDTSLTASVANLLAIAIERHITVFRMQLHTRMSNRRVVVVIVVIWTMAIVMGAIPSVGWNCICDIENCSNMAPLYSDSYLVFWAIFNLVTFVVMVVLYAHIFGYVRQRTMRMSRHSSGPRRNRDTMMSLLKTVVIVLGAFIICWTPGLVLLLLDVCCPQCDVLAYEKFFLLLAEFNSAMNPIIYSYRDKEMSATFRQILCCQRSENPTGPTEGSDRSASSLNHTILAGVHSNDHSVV
Experimental: as §1, §2
After incubating the cells with Fura-2 AM, the cells were rinsed with Krebs buffer and changes in the intracellular Ca^2+ concentration were monitored by determining the ratio of emitted light intensities at 520 nm in response to excitation at 340 and 380 nm using FLEXstation II (Molecular Devices, Sunnyvale, Calif.). Each well was monitored for 80-120 sec. For testing agonist activity of the compounds, the test compounds were added automatically after 15 sec of baseline measurement. To determine antagonist properties, varying concentrations of the compounds were mixed with a constant concentration of LPA and responses were monitored. Each test was performed in quadruplicate. EC50, IC50, and Ki values were calculated by fitting a sigmoid function to data points with the nonlinear curve-fitting feature of KaleidaGraph (Synergy Software, Essex Junction, Vt.).
Receptor activation using Ca^2+ mobilization assay. The assay for mobilization of intracellular Ca^2+ was performed as described. Briefly, rat hepatoma RH7777 cells stably expressing human LPA1, LPA2, or LPA3, and CHO cells stably expressing LPA4, were loaded with Fura-2 AM (Molecular Probes). Using a FLEXStation (Molecular Devices, Sunnyvale, Calif.), changes in intracellular Ca^2+ concentration were monitored. Ligand-induced changes in fluorescence were monitored for 80-120 seconds. Ca^2+ transients were quantified automatically by calculating the difference between maximum and baseline ratio values for each sample. To determine antagonist properties, different concentrations of each analogue were mixed with either palmitoyl (16:0) or oleoyl (18:1) LPA (200 nM for LPA1 and LPA3, 10 nM for LPA2, and 400 nM for LPA4) (Avanti Polar Lipids, Inc., […], Ala.) and responses were recorded. Each test was performed in quadruplicate. EC50, IC50, and Ki values were calculated as described. The ligand properties of the compounds were evaluated using Ca^2+ mobilization assay for assessing the activation/inhibition of LPA1, LPA2, and LPA3 expressed in RH7777 cells and LPA4 expressed in CHO cells. Table l illustrates calcium responses elicited through the activation of human LPA1, LPA2, LPA3 and LPA4 receptors. These cell lines have been used extensively for the characterization of LPA GPCR ligands because RH7777 cells are intrinsically unresponsive to LPA and CHO cells show minimal endogenous responses to LPA unless transfected with LPA4.

human LPA4 = target: T4, human LPA4 (Homo sapiens, UniProt Q99677); test: Ca2+ mobilization assay, LPA4 in CHO cells; conditions: for inhibition at 30 µM: CHO, at 30 μM (400 nM LPA), read-out: LPA4 Inhibition; for LPA4 ligand type: agonist/antagonist in words; for EC50: CHO cells stably expressing LPA4, agonist mode; for LPA4 (Emax): Emax = (maximal efficacy of compound/maximal efficacy of LPA 18:1) × 100
T4 construct: expressed in transfected cells
T4 sequence (Q99677 whole entry): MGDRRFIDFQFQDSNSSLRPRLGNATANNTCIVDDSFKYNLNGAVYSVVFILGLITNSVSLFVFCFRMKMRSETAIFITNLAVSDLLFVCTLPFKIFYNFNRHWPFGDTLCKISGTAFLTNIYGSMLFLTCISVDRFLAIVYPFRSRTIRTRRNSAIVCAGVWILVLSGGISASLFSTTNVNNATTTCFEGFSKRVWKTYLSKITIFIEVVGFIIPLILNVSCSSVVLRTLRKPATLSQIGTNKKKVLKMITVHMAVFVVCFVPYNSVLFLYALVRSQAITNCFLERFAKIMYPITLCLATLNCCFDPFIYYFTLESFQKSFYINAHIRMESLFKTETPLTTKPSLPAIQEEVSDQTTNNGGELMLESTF
Experimental: as §1
Stable transformants of LPA4. CHO cells stably expressing either vector or LPA4 were plated on non-coated 96 well plates at a density of 4×10^4 cells/well and cultured overnight. The following day, cells were loaded with Fura-2 AM for 1 h in modified Krebs buffer containing 2% (v/v) pluronic acid and 2.5 mM probenecid.
as §3, §4

[1] = diastereomer study, RH7777 cells, read-out: LPA3 IC50 (Table 2)
[2] = diastereomer study, RH7777 cells, read-out: LPA3 Ki (Table 2)
[3] = diastereomer study, RH7777 cells, read-out: LPA2 IC50 (Table 2)
[4] = diastereomer study, RH7777 cells, read-out: LPA2 Ki (Table 2)
[5] = diastereomer study, RH7777 cells, read-out: LPA1 IC50 (Table 2)
[6] = diastereomer study, RH7777 cells, read-out: LPA1 Ki (Table 2)
[7] = antagonist mode vs 200 nM LPA, read-out: LPA3 (Ki)
[8] = antagonist mode vs 10 nM LPA, PA = partial antagonist, read-out: LPA2 IC50
[9] = antagonist mode vs 10 nM LPA, read-out: LPA2 (Ki)
[10] = antagonist mode vs 200 nM LPA, PA = partial antagonist, read-out: LPA1 IC50

Row | Structure (SMILES) | IC50 (human LPA2; [3]) [nM] | Ki (human LPA2; [4]) [nM] | IC50 (human LPA1; [5]) [nM] | Ki (human LPA1; [6]) [nM] | inhibition at 30 µM (human LPA4) [%] | LPA4 ligand type (human LPA4) | EC50 (human LPA3) [nM] | EC50 (human LPA2) [nM] | EC50 (human LPA1) [nM] | IC50 (human LPA1; [10]) [nM] | EC50 (human LPA4) [nM] | LPA4 (Emax) (human LPA4) | LPA3 (Emax) (human LPA3) | LPA2 (Emax) (human LPA2) | LPA1 (Emax) (human LPA1) | other results
1 | CCCCCCCCCCCCCCCC(=O)OC[C@@H](O)C[C@H](Br)P(=O)(O)O [Compound 1b] | 275 | 241 | 2080 | 752 | 33.1 | Partial Antagonist |  |  |  |  |  |  |  |  |  | LPA3 ligand type (human LPA3): Antagonist; IC50 (human LPA3; [1]): 2090 nM; Ki (human LPA3; [2]): 623 nM; LPA2 ligand type (human LPA2): Antagonist; LPA1 ligand type (human LPA1): Antagonist
2 | CCCCCCCCCCCCCCCC(=O)OC[C@@H](O)CC(Br)P(=O)(O)O (mixture of isomers) [Compound 1, [1-Bromo-3(S)-hydroxyl-4-(palmitoyloxy)butyl]-phosphonate] | 468 | 245 | 4520 | 805 | 13.9 |  | > 30000 | > 30000 | > 30000 | 1500 ± 559 | > 30000 |  |  |  |  | Ki (human LPA3; [7]): 380 nM; inhibition at 30 µM (human LPA3; at 30 μM (200 nM LPA)): 71.3%; IC50 (human LPA3; read-out: LPA3 IC50): 1160 ± 259 nM; IC50 (human LPA2; [8]): 1420 ± 83 nM; Ki (human LPA2; [9]): 304 nM; Ki (human LPA1; antagonist mode vs 200 nM LPA, read-out: LPA1 (Ki)): 751 nM; IC50 (human LPA4): 266 nM; Ki (human LPA4; antagonist mode vs 400 nM LPA): 167 nM
3 | CCCCCCCCCCCCCCCC(=O)OCC(O)CC(O)P(=O)([O-])O.[Na+] (mixture of isomers) [Compound 22b, reference compound] |  |  |  |  |  |  | > 30000 | > 30000 | > 30000 | > 30000 | > 30000 |  |  |  |  | 
4 | CCCCCCCCCCCCCCCC(=O)OC[C@@H](O)CCP(=O)([O-])O.[Na+] [Compound 20b, reference compound] |  |  |  |  |  | weak LPA4 agonists | > 30000 | > 30000 | > 30000 | > 30000 | 5400 ± 526 | (29.3 ± 1.1) |  |  |  | IC50 (human LPA3; antagonist mode vs 200 nM LPA, PA = partial antagonist, read-out: LPA3 IC50): 2560 ± 1160 nM; Ki (human LPA3; [7]): 961 nM; IC50 (human LPA2; [8]): 2590 ± 875 nM; Ki (human LPA2; [9]): 1300 nM
5 | CCCCCCCCC=CCCCCCCCC(=O)OCC(O)CC(O)P(=O)([O-])O.[Na+] (mixture of isomers) [Compound 22a, reference compound] |  |  |  |  |  | weak LPA4 agonists | 393 ± 89 | > 2160 | > 9250 | > 30000 | > 1150 | (71.7 ± 2.0) | (116 ± 9.5) | (71.9 ± 6.0) | (39.1 ± 3.15) | 
6 | CCCCCCCC/C=C\CCCCCCCC(=O)OCC(O)CCP(=O)(O)O (stereo not shown) [Compound 20a, reference compound] |  |  |  |  |  | weak LPA4 agonists | > 1710 | > 281 | > 2520 | > 30000 | 3900 ± 104 | (110 ± 1.3) | (63.5 ± 4.8) | (94.7 ± 4.3) | (52.9 ± 11.3) | 
7 | CCCCCCCCCCCCCCCC(=O)OCC(O)COP(=O)(O)O (stereo not shown) [LPA (16:0), reference compound] |  |  |  |  |  |  | 1530 ± 194 | 55.1 ± 4.3 | 90.8 ± 20.9 | > 30000 | 843 ± 130 | (102.4 ± 4.1) | (71.2 ± 2.9) | (100.3 ± 1.9) | (88.7 ± 3.6) | 
8 | CCCCCCCCCCCCCCCC(=O)OC[C@@H](O)C[C@@H](Br)P(=O)(O)O [Compound 1a] | 288 | 250 | 648 | 273 | 35.1 | Partial Antagonist |  |  |  |  |  |  |  |  |  | LPA3 ligand type (human LPA3): Antagonist; IC50 (human LPA3; [1]): 4440 nM; Ki (human LPA3; [2]): 1830 nM; LPA2 ligand type (human LPA2): Antagonist; LPA1 ligand type (human LPA1): Antagonist
